Data on 16 compounds can be found in publication PMC4531110 (Chemical biology & drug design, 2015).

“Also recorded” adds a separate entry of the source. Read-outs that look alike come from different tables or passages of the source.

For series [1], the system named is influenza RNA promoter. The series is classed as binding, influenza A virus. The note with it: for line broadening of the imino protons of U27: 1D 1H NMR; for Kd: pH 6; for binding to the RNA promoter (1D 1H NMR, imino protons of U26, G13): 30 or 50 μM RNA promoter.
Series [2] deals with WSN-Ren luciferase virus. Briefly: Viral replication assay by RT-PCR, WSN nucleoprotein mRNA level in MDCK-HA cells. The format is cell-based, influenza A virus. The note with it: 50 μM, standardized against beta-actin, vs DMSO.
Series [3] relates to A/WSN/33 influenza virus (WSN-Ren luciferase virus) in MDCK-HA cells. The following applies: for IC50/CC50: ratio of WSN-Ren IC50 to ATPlite CC50.
For series [4] the test system is unchanged. The note with it: cell-based viral replication (luciferase) assay; cited from earlier work.
For series [5], the target named is influenza RNA promoter. The following applies: from peak intensity of imino protons of U26, G13 and G24; cited from earlier work.
The test system of series [6] is MDCK cells. The following applies: cited from earlier work.
The nature of series [7]: in vitro. The following applies: dog.
For series [8], the system named is wild-type influenza virus (A/Puerto Rico/8/1935). The format is cell-based.
Series [9] relates to MDCK cells.
The nature of series [10]: ATPlite assay for cytotoxicity assessment. The following applies: dog, MDCK cells (results text: MDCK-HA cells). A general note: Cellular ATP, detected with luciferase, serves as a proxy for viable cell number.

Broadly, the Kd is the free concentration of one partner at which half of the binding sites on the other are occupied at equilibrium, for simple one-to-one binding. Broadly, the IC50 is the concentration that inhibits the measured activity by half. As for `COc1cc2nc(N3CCNCC3)nc(N)c2cc1OC` [Compound 1, 6,7-dimethoxy-2-(1-piperazinyl)-4-quinazolinamine], in [1], the “line broadening of the imino protons of U27” value (shortened to “line broadening”) is given as “caused line broadening of the imino protons of U27” and the Kd amounted to 61.5 µM. Besides, the “inhibition of viral nucleoprotein mRNA production” value in series [2] is reported as “not effective”. For the same compound, the IC50/CC50 in series [3] is on record as less than 0.55. Besides, in series [4], the IC50 is 549 µM. Further, the Kd in series [5] is 50.5 ± 9 µM. The CC50 in series [6] is more than 1000 µM.
Take `COc1cc2nc(N3CCN(C(=O)CNC(=O)CNC(=O)CN)CC3)nc(N)c2cc1OC` [Compound 3, 2-amino-N-(2-((2-(4-(4-amino-6,7-dimethoxyquinazolin-2-yl)piperazin-1-yl)-2-oxoethyl)amino)-2-oxoethyl)acetamide]: in series [1], the “line broadening” value is listed as “caused line broadening of the imino protons of U27”; the “binding to the RNA promoter (1D 1H NMR, imino protons of U26, G13)” value (“binding to the RNA promoter” for short) is listed as “bound to the influenza RNA promoter; also recorded: compound binding to the RNA promoter”; the affinity, expressed as Kd, was 132 µM. In series [7], this compound yielded a CC50 at 24 h of more than 250 µM.
As to `COc1cc2nc(N3CCN(C(=O)CCCCN)CC3)nc(N)c2cc1OC` [Compound 4, 5-amino-1-(4-(4-amino-6,7-dimethoxyquinazolin-2-yl)piperazin-1-yl)pentan-1-one], in series [1], the “line broadening” value is listed as “caused line broadening of the imino protons of U27” and the “binding to the RNA promoter” value is given as “bound to the influenza RNA promoter; also recorded: compound binding to the RNA promoter”. The same compound yielded a CC50 at 24 h in [7] of more than 250 µM.
The matching figures for `COc1cc2nc(N3CCN(S(C)(=O)=O)CC3)nc(N)c2cc1OC` [Compound 5, 6,7-dimethoxy-2-(4-(methylsulfonyl)piperazin-1-yl)quinazolin-4-amine]: “caused line broadening of the imino protons of U27”, “bound to the influenza RNA promoter; also recorded: compound binding to RNA promoter” and more than 250 µM.
Consider `CCC(=O)N1CCN(c2nc(N)c3cc(OC)c(OC)cc3n2)CC1` [Compound 6, 1-(4-(4-amino-6,7-dimethoxyquinazolin-2-yl)piperazin-1-yl)propan-1-one], for which, in series [1], the “binding to the RNA promoter” value is “compound binding to RNA promoter” and the Kd stood at 114 µM. The IC50/CC50 in series [3] was less than 0.16. Besides, the CC50 at 24 h in [7] is more than 250 µM.
For `COc1cc2nc(N3CCN(C(=O)C(C)C)CC3)nc(N)c2cc1OC` [Compound 7, 1-(4-(4-amino-6,7-dimethoxyquinazolin-2-yl)piperazin-1-yl)-2-methylpropan-1-one], in series [1], the “line broadening” value is listed as “caused line broadening of the imino protons of U27”; the “binding to the RNA promoter” value is recorded as “compound binding to RNA promoter”; binding was put at a Kd of 158 µM. In series [3], half-maximal inhibition (IC50) was put at 33.9 ± 23.2 µM and the IC50/CC50 is given as less than 0.14. The compound further showed a CC50 at 24 h in series [7] of more than 250 µM.
As for `CCCC(=O)N1CCN(c2nc(N)c3cc(OC)c(OC)cc3n2)CC1` [Compound 8, 1-(4-(4-amino-6,7-dimethoxyquinazolin-2-yl)piperazin-1-yl)butan-1-one], in [1], the “binding to the RNA promoter” value is given as “compound binding to RNA promoter” and binding was characterised by a dissociation constant (Kd) of 44.4 µM. Besides, in series [3], the IC50 turned out to be 44.2 ± 11.3 µM and the IC50/CC50 is reported as less than 0.18. Besides, the CC50 at 24 h in series [7] was more than 250 µM.
With `COc1cc2nc(N3CCN(C(=O)CCO)CC3)nc(N)c2cc1OC` [Compound 9, 1-(4-(4-amino-6,7-dimethoxyquinazolin-2-yl)piperazin-1-yl)-3-hydroxypropan-1-one], in series [1], the “line broadening” value is “caused line broadening of the imino protons of U27” and the “binding to the RNA promoter” value is reported as “bound to the influenza RNA promoter; also recorded: compound binding to RNA promoter”. This compound also returned a CC50 at 24 h in series [7] of more than 250 µM.
On to `COc1cc2nc(N3CCN(C(=O)C4CC4)CC3)nc(N)c2cc1OC` [Compound 10, (4-(4-amino-6,7-dimethoxyquinazolin-2-yl)piperazin-1-yl)(cyclopropyl)methanone], for which, in [1], the “binding to the RNA promoter” value is listed as “compound binding to RNA promoter” and binding was characterised by a dissociation constant (Kd) of 127 µM. For the same compound, the “inhibition of A/PR8 nucleoprotein mRNA level” value in [8] is on record as “significant dose-dependent inhibitory activity; also recorded: showed inhibitory effects”. In [3], the half-maximal inhibitory concentration (IC50) is 34.2 ± 17.2 µM and the IC50/CC50 is on record as less than 0.14. In [7], this compound showed a CC50 at 24 h of more than 250 µM.
For the compound `COc1cc2nc(N3CCN(C(=O)C(C)OC)CC3)nc(N)c2cc1OC` (centres unmarked) [Compound 11, 1-(4-(4-amino-6,7-dimethoxyquinazolin-2-yl)piperazin-1-yl)-2-methoxypropan-1-one], in [1], the “line broadening” value is given as “caused line broadening of the imino protons of U27” and the “binding to the RNA promoter” value is “bound to the influenza RNA promoter; also recorded: compound binding to RNA promoter”. In [7], the CC50 at 24 h is more than 250 µM.
In the case of `COc1cc2nc(N3CCN(C(=O)C45CC6CC(CC(C6)C4)C5)CC3)nc(N)c2cc1OC` [Compound 12, (1r,3R,5S)-adamantan-1-yl(4-(4-amino-6,7-dimethoxyquinazolin-2-yl)piperazin-1-yl)methanone], the “binding to the RNA promoter” value in [1] was “bound to the influenza RNA promoter; also recorded: compound binding to RNA promoter”. In addition, in series [3], the IC50 is more than 250 µM and the IC50/CC50 is more than 15.24. Moreover, the CC50 in series [9] turned out to be 16.4 µM.
In the case of `COc1cc2nc(N3CCN(C(=O)C4CCCO4)CC3)nc(N)c2cc1OC` (centres unmarked) [Compound 13, (4-(4-amino-6,7-dimethoxyquinazolin-2-yl)piperazin-1-yl)(tetrahydrofuran-2-yl)methanone], in series [10], the CC50 at 24 h is more than 250 µM.
On to `COc1cc2nc(N3CCN(C(=O)c4ccco4)CC3)nc(N)c2cc1OC` [Compound 14, (4-(4-amino-6,7-dimethoxyquinazolin-2-yl)piperazin-1-yl)(furan-2-yl)methanone], for which, in series [1], the “line broadening” value is “caused line broadening of the imino protons of U27” and the “binding to the RNA promoter” value is recorded as “compound binding to RNA promoter”. Moreover, the IC50/CC50 in series [3] was determined as 0.36. The compound further registered a CC50 at 24 h in series [10] of 78.2 µM.
`COc1cc2nc(N3CCN(C(=O)c4cccs4)CC3)nc(N)c2cc1OC` [Compound 15, (4-(4-amino-6,7-dimethoxyquinazolin-2-yl)piperazin-1-yl)(thiophen-2-yl)methanone]: in series [1], the “binding to the RNA promoter” value is listed as “compound binding to RNA promoter” and the Kd was determined as 221 µM. In series [3], the IC50/CC50 came to 0.25. The compound also yielded a CC50 at 24 h in series [7] of 67 µM.
Take `COc1cc2nc(N3CCN(C(=O)c4ccccc4)CC3)nc(N)c2cc1OC` [Compound 16, (4-(4-amino-6,7-dimethoxyquinazolin-2-yl)piperazin-1-yl)(phenyl)methanone]: in series [1], the “binding to the RNA promoter” value was “compound binding to RNA promoter” and the Kd came to 321 µM. Also, the IC50/CC50 in [3] is given as less than 0.43. Moreover, the CC50 at 24 h in series [7] is more than 250 µM.
For the compound `CCOC(=O)C1=C[C@@H](OC(CC)CC)[C@H](NC(C)=O)[C@@H](N)C1` [Oseltamivir phosphate, oseltamivir phosphate, reference compound], in [8], the “inhibition of A/PR8 nucleoprotein mRNA level” value was “showed inhibitory effects”.
